# Measurements published in ChEMBL document CHEMBL1201862, “PubChem BioAssay data set” (2004).
#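 These data come from cells grown in 96-well plates and exposed to compound for 48 hours at five concentrations. GI50 marks 50% less growth.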 The source made the active and inactive calls. No stated cut-off is given here; in the data, active = GI50 up to about 1.1 µM and inactive = higher.
# Legend:
# Assay in all cases: NCI tumour cell line growth inhibition, 48 h
# 786-0 = tested on: 786-0
# A498 = tested on: A498
# A549 = tested on: A549
# BT-549 = tested on: BT-549
# CCRF-CEM = tested on: CCRF-CEM
# HL-60 = tested on: HL-60
# K562 = tested on: K562
# KM12 = tested on: KM12
# MCF7 = tested on: MCF7
# MDA-MB-231 = tested on: MDA-MB-231
# NCI-H522 = tested on: NCI-H522
# NCI/ADR-RES = tested on: NCI/ADR-RES
# OVCAR-3 = tested on: OVCAR-3
# RXF 393 = tested on: RXF 393
# SF-295 = tested on: SF-295
# SK-MEL-28 = tested on: SK-MEL-28
# SK-MEL-2 = tested on: SK-MEL-2
# SN12C = tested on: SN12C
# SNB-75 = tested on: SNB-75
# UO-31 = tested on: UO-31
SMILES,GI50 (786-0),GI50 (A498),GI50 (A549),GI50 (BT-549),GI50 (CCRF-CEM),GI50 (HL-60),GI50 (K562),GI50 (KM12),GI50 (MCF7),GI50 (MDA-MB-231),GI50 (NCI-H522),GI50 (NCI/ADR-RES),GI50 (OVCAR-3),GI50 (RXF 393),GI50 (SF-295),GI50 (SK-MEL-28),GI50 (SK-MEL-2),GI50 (SN12C),GI50 (SNB-75),GI50 (UO-31)
O=C(CCn1ccnc1[N+](=O)[O-])NCCCn1ccnc1[N+](=O)[O-],> 100 µM (inactive),> 100 µM (inactive),> 100 µM (inactive),> 100 µM (inactive),> 100 µM (inactive),> 100 µM (inactive),> 100 µM (inactive),> 100 µM (inactive),> 100 µM (inactive),> 100 µM (inactive),> 100 µM (inactive),> 100 µM (inactive),> 100 µM (inactive),> 100 µM (inactive),> 100 µM (inactive),> 100 µM (inactive),> 100 µM (inactive),> 100 µM (inactive),> 100 µM (inactive),> 100 µM (inactive)
O=C1/C(=C/c2cccc(O)c2)COc2ccccc21,4.69 µM (inactive),20.3 µM (inactive),20 µM (inactive),15.5 µM (inactive),1.59 µM (inactive),4.5 µM (inactive),2.78 µM (inactive),2.15 µM (inactive),3.63 µM (inactive),8.2 µM (inactive),2.51 µM (inactive),2.17 µM (inactive),2.01 µM (inactive),10.1 µM (inactive),15.7 µM (inactive),4.45 µM (inactive),18 µM (inactive),8.04 µM (inactive),15.5 µM (inactive),10.5 µM (inactive)
CC1(C)C2CC(O)C1CCC2=O (stereo not drawn),> 100 µM (inactive),> 100 µM (inactive),> 100 µM (inactive),> 100 µM (inactive),> 100 µM (inactive),> 100 µM (inactive),> 100 µM (inactive),> 100 µM (inactive),> 100 µM (inactive),> 100 µM (inactive),> 100 µM (inactive),> 100 µM (inactive),> 100 µM (inactive),> 100 µM (inactive),> 100 µM (inactive),> 100 µM (inactive),> 100 µM (inactive),> 100 µM (inactive),> 100 µM (inactive),> 100 µM (inactive)
Cc1ccc(C(CCO)CCO)nc1,> 100 µM (inactive),> 100 µM (inactive),> 100 µM (inactive),> 100 µM (inactive),> 100 µM (inactive),> 100 µM (inactive),–,> 100 µM (inactive),> 100 µM (inactive),> 100 µM (inactive),> 100 µM (inactive),> 100 µM (inactive),> 100 µM (inactive),> 100 µM (inactive),> 100 µM (inactive),> 100 µM (inactive),> 100 µM (inactive),> 100 µM (inactive),> 100 µM (inactive),> 100 µM (inactive)
O=C1c2cc([N+](=O)[O-])ccc2-c2cccc(F)c21,> 100 µM (inactive),65.6 µM (inactive),> 100 µM (inactive),> 100 µM (inactive),23.7 µM (inactive),38.5 µM (inactive),43 µM (inactive),79.4 µM (inactive),31.3 µM (inactive),> 100 µM (inactive),44.5 µM (inactive),> 100 µM (inactive),> 100 µM (inactive),42.9 µM (inactive),> 100 µM (inactive),> 100 µM (inactive),21.2 µM (inactive),> 100 µM (inactive),> 100 µM (inactive),85.3 µM (inactive)
CC1=CC(=O)/C(=C/NC(=S)Nc2ccccc2)C(=O)O1,> 100 µM (inactive),> 100 µM (inactive),> 100 µM (inactive),> 100 µM (inactive),> 100 µM (inactive),> 100 µM (inactive),> 100 µM (inactive),> 100 µM (inactive),> 100 µM (inactive),> 100 µM (inactive),53.3 µM (inactive),> 100 µM (inactive),> 100 µM (inactive),40.7 µM (inactive),> 100 µM (inactive),–,> 100 µM (inactive),> 100 µM (inactive),> 100 µM (inactive),> 100 µM (inactive)
O=C1/C(=C/c2ccccc2)CCC/C1=C\c1ccc(O)c(CN2CCCCC2)c1,1.69 µM (inactive),5.37 µM (inactive),7.59 µM (inactive),2.84 µM (inactive),3.3 µM (inactive),3.49 µM (inactive),3.27 µM (inactive),0.933 µM (active),4.32 µM (inactive),2.77 µM (inactive),2.24 µM (inactive),2.69 µM (inactive),6.98 µM (inactive),13.8 µM (inactive),5.35 µM (inactive),6.92 µM (inactive),11.9 µM (inactive),2.82 µM (inactive),6.37 µM (inactive),6.92 µM (inactive)
